# According to patent US20250011869A1, “TLR3 INHIBITORS FOR USE IN THE TREATMENT OF DISEASES ASSOCIATED WITH CARDIOVASCULAR CALCIFICATION” (priority 2021, published 2025):
# Key:
# VICs [1] = test: Calcification assay of VICs in osteogenic medium (Alizarin Red S, alkaline phosphatase); format: cell-based, human; conditions: VICs in osteoblastic medium
# Description: For functional evaluation of osteoblastic activity, VICs were subjected to a calcification assay. Cells were cultured in osteogenic medium including 10 mmol/L beta-glycerophosphate, 10 nmol/L vitamin D3, and 10 nmol/L dexamethasone as described previously^4. The medium was changed every three days. Subsequently, supernatant was analyzed for alkaline phosphatase activity using the commercially available alkaline phosphatase assay kit (Abcam, Cambridge, UK). After careful rinsing with PBS, cells were fixed with 4% paraformaldehyde, washed with distilled water and Alizarin Red S staining solution (Alfa Aesar, Haverhill, MA) was added upon the fixed cells for 20 minutes at room temperature (RT). Imaging of the staining was performed using a Zeiss Axioplan 2 microscope (Zeiss, Oberkochen, Germany). Images were processed using Adobe Photoshop CS5.1 for Mac (Adobe Systems Inc., San Jose, CA, USA) and analyzed with ImageJ software (National Institutes of Health, Bethesda, […]).
# VICs [2] = test: RNA sequencing of VICs vs human osteoblasts; format: cell-based; conditions: Poly(I:C) 20 μg/mL, 72 h
# Description: Total-RNA was isolated from five samples (VICs, cultured in calcification media and treated either 72 h with 20 μg/ml Poly(I:C), untreated controls, as well as human osteoblasts) and submitted to transcriptome analysis for the purpose of gene-expression profiling. For the RNA sequencing analysis in FIG. 5 the 2100 Bioanalyzer and RNA 6000 Nano LabChip kits (Agilent Technologies) was used to check for RNA integrity (all RINs >9). The TruSeq® Stranded mRNA HT technology was used for library preparation according to manufacturer's protocol and Illumina NextSeq® 500 1×75 bp single end sequencing was performed at the IMGM® laboratories (Martinsried, Germany). The RNA sequencing analysis in Figure S3 was performed at Novogene (UK) Co. using the NovaSeq 600 PE150.
# All primary sequencing analyses were performed using CLC Genomics Workbench (9.5.3) including sequence QC and mapping to the human reference genome (GRCh38.p7). Differentially expression analyses were performed on raw count data and using an exact test based on negative binomial distribution (edgeR version 3.4.0) 10. P-values were adjusted according to the Benjamini-Hochberg method based on the false discovery rate (FDR). Only genes with at least four-fold change were considered. Over representation analysis for gene ontology and pathways on differentially expressed genes were performed using DAVID (6.8) 11 and ConsensusPathDB^12. Gene set enrichment analysis on log 2-fold change pre-ranked data was performed using GSEA software^13 and gene sets for biological hallmark processes and pathways (MSigDB), calcification signature as derived from respective literature, and signatures of differentially expressed genes for calcific aortic valve stenosis versus control^14 (reanalyzed data from GSE12644 using R package limma^15 including genes with more than two-fold change and FDR <0.05). Heat maps were generated using Genesis version 1.8.116 for log 2-fold change data.
# TLR3 = TLR3 expression in valvular interstitial cells (immunoblot / RT-qPCR); format: cell-based, human; conditions: RT-qPCR; Poly(I:C) 2, 4, 6, 24 and 48 h (FIG. 4A)
# Description: (§1) Valvular interstitial cells from patients undergoing aortic valve replacement or cardiac transplantation were isolated via collagen digestion as described previously^6. Valves were rinsed in EBSS and subsequently subjected to collagenase digestion (Sigma, St. Louis, MO; 2.5 mg/mL in M199) for 30 minutes at 37° C. Thereafter, tissue samples were vortexed and supernatant containing endothelial cells was removed. Again, collagenase was added to the remaining valve tissue (1 mg/mL) for 3 h at 37° C. For mechanical disintegration of the tissue, vortexing and repeated aspiration via a pipette was performed. The supernatant was transferred into a new tube and subjected to centrifugation (300 g for 8 minutes at 4° C.). Subsequently, cells were resuspended in M199 medium containing 10% fetal calve serum, penicillin, streptomycin, L-Glutamine and amphotericin B (2.5 mg/L).
# (§2) All cells were cultivated under standard conditions (37° C., supplied with 5% CO2). Passaging of the cells was performed at 70-90% confluency, and cells were only used until passage 7 as described previously^6. […]
# (§3) RT-PCR was performed as described previously^17. […] The result for the relative gene expression was calculated by the 2-DDCt method. Mean Ct values were calculated from double determinations and samples were considered negative if the Ct values exceeded 4017. […]
# TLR3 and IFN-β = test: RT-PCR of human dermal fibroblasts (wild type, empty vector control, Tlr3−/− CRISPR); format: cell-based; conditions: 5 μg/ml, 6 h
# Source text: (§4) Human dermal fibroblasts WT and Tlr3^−/− were kindly provided by the Jean-Laurent Casanova group and cultivated in DMEM with 4.5 g/L glucose (Lonza, Basel, Switzerland), 10% FCS (Sigma, St. Louis, MO), penicillin, streptomycin and L-Glutamine. Human dermal fibroblasts CTR cells were provided by the Villunger group and cultivated in DMEM with 4.5 g/L glucose (Lonza, Basel, Switzerland), 10% FCS (Sigma, St. Louis, MO), penicillin, streptomycin and L-Glutamine.
# (§5) All cells were cultivated under standard conditions (37° C., supplied with 5% CO2). Passaging of the cells was performed at 70-90% confluency, and cells were only used until passage 7 as described previously^6. Polyinosinic: polycytidylic acid (Poly(I:C); Invivogen, San Diego, CA) was used to stimulate cells at a concentration of either 20 μg/mL or 5 μg/ml, depending on the assay. For blockade of TLR3, the commercially available dsRNA/TLR3 inhibitor ((R)-2-(3-Chloro-6-fluorobenzo [b] thiophene-2-carboxamido)-3-phenyl-propanoic acid) was used (Merck, Darmstadt, Germany) at a concentration of 1 μg/ml as described previously^1,7. LY294002 (Invivogen, San Diego, CA), a PI3K inhibitor, was used at a concentration of 10 μM. For blockade of IFNAR1, a specific blocking antibody (Invitrogen, Carlsbad, CA) was used at a concentration of 4 μg/ml. A stable HEK (human embryonic kidney) reporter cell line (TLR3/ISRE LUCPorter; Imgenex, USA) was purchased for luminometer assay experiments. Cells were cultivated according to the manufacturer's protocol in DMEM with 4.5 g/L glucose (Lonza, Switzerland), 10% FCS (Sigma, St. Louis, MO), penicillin/streptomycin, and 4 mM L-glutamine and […] puromycin (Gibco, USA) as selection agent. Reporter experiments were performed as described previously^8. For the protein expression SF21 cells were purchased at ThermoFisher (#11497013) and cultivated in Gibco™ Sf-900™ SFM supplemented with penicillin, streptomycin and L-Glutamine. In vitro stretch was applied using a Flexcell bioreactor (Flexcell International Corporation, Burlington, NC) applying 15% cyclic strain as described previously^9.
# RT-PCR was performed as described previously^17. Total RNA was extracted from homogenized tissue or cell lysates using the Total RNA Miniprep Kit (New England BioLabs, Frankfurt, Germany) according to the manufacturer's instructions. We performed the PCR reaction in a final volume of 12.5 μL containing 2.5 μL of cDNA, 6.25 μL of Master Mix, 1 μL of fluorogenic hybridization probe, 10 μM of primer and 2.75 μL of distilled water. […] The result for the relative gene expression was calculated by the 2-DDCt method. Mean Ct values were calculated from double determinations and samples were considered negative if the Ct values exceeded 4017. […]
# TLR3-RUNX2 pathway = test: Immunoblot of human dermal fibroblasts for the TLR3-RUNX2 pathway; format: cell-based; conditions: wild type and empty vector control cells; 5 μg/ml, 6 h
# Source text: as §4, §5
# Protein from tissue or cell lysates was extracted using a Radioimmunoprecipitation Assay Lysis Puffer (150 mM NaCl, 1% NP-40, 0.5% Sodium Deoxycholate, 0.1% SDS and 50 mM Tris (pH 8,0)). For the extraction of nuclear or cytosolic proteins the NE-PER™ Nuclear and Cytoplasmic Extraction Reagents Kit (ThermoScientific, #78835) was used.
# Protein was thereafter separated on SDS-polyacrylamide gels of different percentages and transferred to nitrocellulose membranes as described previously^18. After blocking with either 5% BSA in TBS 0.1% Tween, 5% milk in TBS 0.1% Tween or StartingBlock™ (TBS) Blocking buffer (ThermoScientific, #37542) membranes were incubated with primary antibodies listed in Table 2.
# IFN-β = IFN-β expression in VICs (RT-qPCR); format: cell-based, human; conditions: Poly(I:C) 2, 4, 6, 24 and 48 h (FIG. 4B)
# Description: as §1, §2, §3
substance,measurement,setting,value
Polyinosinic: polycytidylic acid [Poly(I:C)],calcification / production of calcific nodules,"VICs [1]; Poly(I:C) 20 μg/mL or inhibitor 26 μM, Alizarin Red S",enhanced the production of calcific nodules
same,alkaline phosphatase (ALP) activity,VICs [1]; supernatant,increased the activity
same,transcriptome of treated VICs,VICs [2],induces an osteoblastic transcriptome
same,genes downregulated in both Poly(I:C)-treated VICs and human osteoblasts compared to untreated VICs,VICs [2]; at least four-fold change,199 genes
same,genes upregulated in both Poly(I:C)-treated VICs and human osteoblasts compared to untreated VICs,VICs [2]; at least four-fold change,118 genes
same,TLR3 expression in VICs,TLR3,increased expression
same,transcription of TLR3 and IFN-β,TLR3 and IFN-β; Tlr3−/− fibroblasts,no response
same,transcription of TLR3 and IFN-β,TLR3 and IFN-β; wild type and empty vector control fibroblasts,induced transcription of TLR3 and IFN-β
same,IFNAR1 level,TLR3-RUNX2 pathway,upregulation of IFNAR1
same,levels of osteoblastic transcription factor RUNX2,TLR3-RUNX2 pathway,increased levels
same,phosphorylation of IRF3,TLR3-RUNX2 pathway,phosphorylation of IRF3
same,IFN-β expression in VICs,IFN-β,increased expression
